Assay [1] has as its system CREB phosphorylation in arcuate neurons. The assay is described as follows: CREB phosphorylation in hypothalamic explant cultures (immunofluorescence of p-CREB). To be noted: hypothalamic explants treated with serotonin. The assay is classed as cell-based, mice. Here is the method: FIG. 18. (A) Western blot analysis of CREB phosphorylation and CREB in hypothalamic explants treated with PBS, serotonin (50 µM), Htr1a antagonist (LY426955) (50 µM) or serotonin (50 µM)+Htr1a antagonist (LY426955) (50 µM). (B) Analysis of CREB phosphorylation by immunofluorescence using P-CREB (S133) antibody. Immunofluorescence was performed on coronal sections of wild type (WT) hypothalamic explants previously treated with, PBS, 50 µM serotonin, 50 µM Htr1a antagonist (LY426955) or 50 µM serotonin+50 µM Htr1a antagonist (LY426955) for 30 min. The first row represents large bright field images of hypothalamic sections and the immunofluorescence analysis of the restricted hypothalamic region containing the Arcuate (Arc) neurons. Ventromedial hypothalamus (VMH) and Arcuate (Arc) are outlined with dashed. (C-D) Analysis of the appetite of CrebPomc−/− mice. (C) Measurement of the food intake (g) within 12 hours and 24 hours and (D) body weight analysis in WT, CrebPomc+/− and CrebPomc−/− mice. *(p<0.05, SEM). (E) Real-time PCR analysis of Mc4r, Pomc-1, Cart, Mch, Hypocretine and Npy expression in hypothalamus of WT and CrebPomc−/− mice. *(p<0.05, SEM).
Htr1a is a […] coupled receptor that signals through the cAMP-PKA-dependent pathway. […]

Assay [2] relates to c-Fos expression in neurons of the paraventricular and arcuate nuclei. Put plainly: Melanocortin sensitivity analysis: c-Fos expression after ICV Mc4r agonist. The format is in vivo. Conditions: ICV infusion, both WT and Tph2-/- mice. How it is done: A survey was carried out of the expression of genes in hypothalamic neurons that may mediate leptin regulation of appetite and the expression of which is perturbed in Tph2−/− mice. […] Two observations support the notion that the appetite phenotype of the Tph2−/− mice is caused, at least in part, by an increase in melanocortin signaling. […] Moreover, Mc4r expression was increased ˜2 fold in Htr1a−/− and ˜1.6 fold in Htr2bPomc−/− mice, but was unaffected in Htr2c−/− mice (FIG. 6J and data not shown).
To analyze changes in melanocortin sensitivity in Tph2−/− mice, MTII (2 μg) or saline was administered (ICV) into WT and Tph2−/− mice. 3 hours later mice were transcardially perfused with 4% PFA, brains were dissected and postfixed in 4% PFA overnight at 4° C. Following cryoprotection in 20% sucrose, brains were coronally sectioned at 30 μm thickness. For colorimetric cFos immunohistochemistry, sections were incubated for 16 hrs at 4° C. in rabbit anti-cFos antiserum (Ab-5; 1:3000 dilution; Calbiochem), incubated with biotinylated goat anti-rabbit IgG secondary antiserum (1:600; Vector laboratories) for 2 h at room temperature, and then incubated in avidin biotin complex (Vector Labs). Color was developed using Vector ABC kit.

The test system of a further assay is Tph2 expression. The assay is described as follows: qPCR analysis of Tph2 expression following leptin ICV infusion. Conditions: WT mice, different doses and time points. The format is in vivo. The text has this: FIG. 5. Leptin inhibits bone mass accrual by inhibiting brain-derived serotonin synthesis. (A) In situ hybridization analysis and co-immunolocalization of ObRb expression in serotonergic neurons. (B-C) qPCR analysis of Tph2 expression (B) and brainstem serotonin content (C) at different ages in WT and ob/ob female mice. (D-E) qPCR analysis of Tph2 expression following intra-cerebroventricular (ICV) infusion of leptin at different doses (D) and at different time points (E) in WT mice. (F) Immunohistochemical analysis of STAT3 phosphorylation in the dorsal and median raphe following leptin ICV. Arrows indicate pSTAT3/β-Gal positive cells. (G-H) qPCR analysis of Tph2 expression (G) and brainstem serotonin content (H) in WT, ob/ob and ob/ob; Tph2+/− mice. (I) Histomorphometric analysis of vertebrae of ob/ob and ob/ob; Tph2+/− mice. (J) Representative traces of action potentials recorded from WT mice before, during and after the application of leptin (100 nM). R.M.P. −43.0 mV. (K-L) Analysis of serotonergic neuron action potential (AP) frequency in brainstem slices from WT (K) and ObRbSERT−/− (L) mice. All panels (except D, E, G, H and K) *P<0.05; **P<0.01 (Student's t test). Error bars, SEM. […]
RNA isolation, cDNA preparation and qPCR analysis was carried out following standard protocols. Genotypes of all the mice were determined by PCR. […]
On the technique in general: Real-time PCR tracks product formation cycle by cycle.

The subject of another assay is phosphorylation of Stat3. The assay is described as follows: Co-immunolocalization of Stat3 phosphorylation in serotonergic neurons of the brainstem after acute leptin ICV infusion. The assay is classed as in vivo, mice. The source says: Multiple lines of evidence indicate that it is by inhibiting BDS synthesis that leptin prevents bone mass accrual. First, ObRb, the signaling form of the leptin receptor, is expressed in β-galactosidase-positive Tph2-expressing neurons (FIG. 5A). […] Leptin inhibits synthesis of BDS, which in turn reduces, by signaling in VMH neurons, the sympathetic tone; as a result leptin prevents bone mass accrual.
Animals were anaesthetized and placed on a stereotaxic instrument (Stoelting) and the depth of anesthesia was determined by the animal's respiratory pattern and by pinching the animal's foot for reflex response. The dorsal part of the animal's head was shaved and prepped with betadine scrub, and 70% alcohol. The skin covering the head was then cut (approximately a 1 cm incision) and the calvaria exposed. A hole was drilled upon bregma using a 28-gauge needle. A 28 gauze needle canula (Brain infusion kit II, Alzet) was then implanted into the hole reaching the third cerebral ventricle according to the following coordinates: midline, −0.3 AP. 3 mm ventral (0 point Bregma). Using a Hamilton syringe, PBS or leptin (2 μg) was injected into the 3rd cerebral ventricle. The dorsal edges of the incision were coated with Bupivicaine 0.25% (<2 mg/kg), joined and closed with 2 sterile clips. […]

For another assay, the system named is serotonergic neurons. Put plainly: Whole cell patch clamp recording in brain slices containing dorsal raphe. The assay is classed as cell-based. Conditions: WT mice. How it is done:
The mediation of peripheral hormone action on the output of the brain relies on altered neuronal circuit activity. Interaction between neuronal circuits hinges on electric properties of neurons, particularly on the generation of action potentials. Thus, to test whether leptin directly alters serotonin output from brainstem neurons, the responses of serotonin-producing cells to leptin were analyzed with whole cell patch clamp recording in brain slices containing dorsal raphe (DR). Slices were taken from WT animals and from mice lacking ObRb selectively in Tph2-expressing neurons (ObRbSERT−/− mice). Serotonergic neurons were identified according to their unique properties (long-duration action potential, activation by norepinephrine and inhibition by serotonin itself) (Liu et al., 2002, J. Neurosci. 22:9453-9464). Since serotonergic neurons are usually quiescent in slices because of the loss of noradrenergic inputs, action potentials in these neurons were restored by application of alpha-1 adrenergic agonist phenylephrine (3 μM) in the bath (Liu et al., 2002, J. Neurosci. 22:9453-9464). […]
Whole-cell current clamp was performed to observe action potentials in DR seritonergic (5-HT) neurons with a Multiclamp 700A amplifier (Axon instrument, CA). […] Electrophysiological data were analyzed with Axograph 4.9 and plotted with Igor Pro software (WaveMetrics, Lake Oswego, Oreg.).
In general terms: In patch-clamp work, channel activity is measured electrically.

The values below come from patent US20120115778A1, “Methods of Suppressing Appetite by the Administration of Antagonists of the Serotonin HTR1a or HTR2b Receptors or Inhibitors of TPH2” (The Trustees of Columbia University in the City of New York, priority 2009, published 2012).

Regarding `NCCc1c[nH]c2ccc(O)cc12` [serotonin], the CREB phosphorylation result in assay [1] was “increased CREB phosphorylation in arcuate neurons”.
Regarding MTII, the “c-Fos expression in neurons of the paraventricular and arcuate nuclei” value in assay [2] is listed as “increased c-Fos expression”.
As to “leptin: adipocyte-derived hormone that regulates appetite and energy expenditure”, the Tph2 expression result in the assay on Tph2 expression is “decreased Tph2 expression in a time- and dose-dependent manner”. Also, the “phosphorylation of Stat3 in serotonergic neurons of the brainstem” value in the assay with phosphorylation of Stat3 (ObRbSERT-/- mice) is “dramatically reduced”; with phosphorylation of Stat3 (WT mice) it was “increased”. Also, the “action potential frequency in serotonergic neurons” value with serotonergic neurons is “significantly decreased action potential frequency”.
